In patent US20220233503A1, “METHODS OF TREATING SEPSIS WITH SYNAPTIC VESICLE 2A AND/OR 2B BINDING CHEMICAL ENTITIES” (INSTITUT PASTEUR, priority 2016, published 2022):

How the values were obtained:
CLP mice [1] = assay: Survival after cecal ligature and puncture (CLP) sepsis; assay type: in vivo, C57Bl/6 mice; details: 300 mg/Kg intraperitoneously, within the first four days, placebo 53%, n=212, p<0.001
Experimental: Cecal ligature and puncture: Cecal ligature and puncture on mice were performed under general anesthesia. Briefly, C57Bl/6 mice were anesthetized with an intraperitoneal injection of Xylazine (20 mg/Kg, Rompun 2%, Bayer, Leverkusen, Germany), and Ketamine (100 mg/Kg, Imalgene, Mérial, Lyon, France) in 100 μl of saline solution at 0.9%. After anesthetic administration, mice were placed in a heated cage or surgical table upon awakening to maintain a body temperature at 37° C. Absence of reaction to leg and tail pinch were checked before incision of abdominal wall and peritoneum. Caecum was found with wet cotton swabs and exposed before loose ligation with Mersilk 4.0 (Ethicon, Cincinatti, USA), 2 transfixiant punctures were realized avoiding blood vessels with a 21G needle. Feces were expressed between cotton swabs before suturing abdominal muscles and peritoneum in 2 separate plans.
Analgesia and rehydration of mice were performed with buprenorphine (0.1 mg/Kg, Buprecare, Axience, Pantin, France) every 12 hours until complete recovery. […] Clinical scoring: Sepsis severity was evaluated twice a day until day 4, or normalization of «sepsis score», a previously described score that ranges from 1 to 12. […] Each item was scored 0 or 1, with a total score rang from 0 (normal) to 12 (highly severe). […]

CLP mice [2] = assay: Open field test after sepsis; assay type: in vivo; details: septic mice, 10 days after sepsis, vs saline
Experimental: […] The experimentator was blinded to the experimental group.
Open Field Mice were placed 45 minutes before being held in the experimental room. Single mice were then placed in a squared 40 cm box in an experimental room and captured with a camera during 10 minutes. Mice were tracked using Ethovision XT and their tail, nose and barycenter was marked. The total length walked, the ratio of time spent moving/non moving, the maximum velocity and the mean distance from barycenter to arena's center were recorded. Datas are presented as Mean±SEM.
Datas are presented as mean±SEM. Sepsis presented a persisting effect on locomotor functions:sepsis lowered the distance traveled (E, p<0.05), increased the time spent not moving (F, p<0.05) and the mean distance to center (G, p<0.05) compared to control mice.

CLP mice [3] = assay: Fear conditioning test after sepsis; assay type: in vivo
Experimental: (§1) Comportemental tests: Every comportemental tests were started 15 days after sepsis induction. The experimentator was blinded to the experimental group.
Fear conditioning. Mice underwent the classical fear conditioning test with a cued stimulus (auditory tone) and an uncued stimulus (electric shock). During two consecutive conditioning trials, 2 minutes resting followed by a 48s tone ([…] tone, 60 db) and 5 electrical footshocks of 2 joules during 2 seconds. Twenty four hours after conditioning, mice underwent the fear memory recall after exposition to a contextual stimulus (shock cage in the same configuration without auditory tone) or an auditory stimulus (Auditory tone in a different cage with a vanilla artificial odor). Freezing was evaluated for 2 seconds every 8 seconds and was defined as the absence of movement of the mouse with tail erection. Percentage of 10 seconds period freezing was reported to the total amount of freezing.

CLP mice [4] = assay: Novel object location/recognition tests after sepsis; assay type: in vivo; details: septic mice, treated or not
Experimental: as §1
Novel Object Recognition Test: Tests comprise three phases: habituation, familiarization and test phase. During the first 20 minutes animals were placed in a transparent arena under a 100 lux light that had three compartments separated with one-holed plexiglass walls. Two objects were used (a plastic power plug and a brass bolt). During the next 10 minutes two similar objects (A,A) were placed in the lateral compartments. We considered that mice were exploring the objects when they were climbing or explore it with their nose. Immediately after mice were replaced in the center of arena and two new objects (A,B) were placed in the compartments. The ratio of time spent exploring objects A and ratio of time exploring object AB were compared.
Figures J-M. Morris water Maze test (MWM) and Novel Object Location/Recognition tests.

CLP mice [5] = assay: Elevated plus maze test after sepsis; assay type: in vivo; details: levetiracetam vs placebo treated CLP mice
Experimental: Elevated plus maze test: Mice home cage was placed in the experimental room 45 minutes prior any handling. Mice were placed in cross shaped 40 cm maze consisting in 2 open arms without walls and 2 closed arms with 30 cm opaque walls. Mice were tracked with ethovision XT during 5 minutes trials. The maximum velocity, total distance walked, number of entries in an open arm, and amount of time spent in an opened arm or in a closed arm were recorded. Datas are presented as Mean±SEM.
(§2) FIG. 2: Innate anxiety behavior and depressive phenotype was investigated with the elevated plus maze and splash test.

CLP mice [6] = assay: Splash test after sepsis; assay type: in vivo; details: levetiracetam vs placebo treated CLP mice
Experimental: Splash test: Mice were placed in a new cage 45 minutes before testing in the experimental room. They were then held onto a grid and 200 μl of sucrose 10% solution was spray on their back's fur. They were then placed in the home cage for 5 minutes. The latency before the first time mice groomed, the number of cleaning sessions and the total amount of time spent cleaning during the 5 minute test were measured. Mice were then placed back in their cage. Datas are presented as Mean±SEM.
as §2

[7] = tested on: pro- and anti-inflammatory cytokine levels in brain parenchyma; assay: Cytokine multiplex in brain parenchyma after sepsis; assay type: in vivo, mice; details: 24 hours after sepsis induction
Experimental: Cytokine multiplex: Brain samples were weighed and unfrosted in 100 μl of extraction buffer (PBS 1×, complete protease inhibitor, sigma-aldrich, triton 0.1%) processed in 2 ml Lysing Matrix A tubes with FastPrep-24 (MP biomedicals, Germany). Tubes were centrifuged at 20000 g at 4° C. and supernatant was collected and protein concentration was determined with light absorbance at 280 nm using a Nanodrop Lite Spectrophotometer (Thermo Scientific). […] Cytokines were measured using a Bio-Plex System and Mouse Cytokine Standard 23-Plex Group 1 kit following manufacturer's recommendations. Raw datas were analyzed by dividing the concentration of cytokine with protein concentration in lyzate and weight of sample measured on precision balance. Then every cytokine concentrations are presented as a ratio compared to the untreated sepsis group.

TNF alpha, IL1 beta = assay: ELISA assay on brain parenchyma after sepsis; assay type: in vivo, mice; details: during sepsis
Experimental: FIG. 3C—An ELISA assay was performed on brain parenchyma to detect lower changes in cytokine concentration.

[8] = tested on: primary murine microglial cells; assay: Pro- and anti-inflammatory marker transcription in primary microglial cells exposed to LPS; assay type: cell-based, C57/B16 mice; details: primary microglial cells after LPS exposure
Source text: NO: 53) and anti-sense primer:[…] NO: 54). […] ID NO: 55) and anti-sense primer […] NO: 56). […] NO: 57) and anti-sense primer:[…] NO: 58).

[9] = tested on: murine primary monocytic cells; assay: Nitric Oxide production in primary monocytic cells exposed to LPS; assay type: cell-based; details: activated murine monocytic cells, LPS 10 μg/mL, cell culture supernatant, dose effect relationship
Experimental: LPS exposure increased NO production at a dose of 10 μg/mL after 24 exposure in cell culture supernatant.

[10] = tested on: rats treated to model traumatic brain injury; details: 54 mg/kg or 170 mg/kg single perfusion 15 minutes after injury; cited from earlier work

Compound: CC[C@@H](C(N)=O)N1CCCC1=O (single isomer, unassigned) [levetiracetam]
- survival rate (CLP mice [1]): 81%
- open field distance traveled (sepsis-associated lowering) (CLP mice [2]): did not influenced
- open field time spent not moving (CLP mice [2]): did not influenced
- open field mean distance to center (CLP mice [2]; p=0.043 Mann-Whitney): decreased
- motor response to electric shock during conditioning period (CLP mice [3]; between groups): did not differ
- auditory freezing time (CLP mice [3]; levetiracetam treated vs placebo treated CLP mice, p=0,024): lower
- time on novel vs familiar object (CLP mice [4]): same amount of time
- innate anxiety (elevated plus maze) (CLP mice [5]): No difference
- depressive phenotype (splash test) (CLP mice [6]): No difference
- TNF alpha in brain parenchyma (multiplex) ([7]; sepsis group treated): could not be detected
- IL4 concentration in brain parenchyma (multiplex) ([7]; vs septic mice receiving saline): increased
- TNF alpha expression in brain parenchyma (ELISA) (TNF alpha, IL1 beta): No difference
- IL1 beta in brain parenchyma (ELISA) (TNF alpha, IL1 beta; p<0.05): increased
- expression of anti and proinflammatory markers [8]: modified
- production of Nitric Oxide [9]: reduced
- cognitive outcome [10]: improved
